In ChEMBL document CHEMBL1130914, “Thromboxane modulating agents. 4. Design and synthesis of 3-(2-[[(4-chlorophenyl)sulfonyl]-amino]ethyl)benzenepropanoic acid derivatives as potent thromboxane receptor antagonists” (Bioorg Med Chem Lett, 1998):

Columns and labels:
Thromboxane A2 receptor = target: T1, Thromboxane A2 receptor (Rattus norvegicus, UniProt P34978); assay: In vitro Thromboxane A2 (TXA2) receptor antagonism was tested by its ability to inhibit the contraction of rat aorta induced by the stable thromboxane agonist U-46,619; type: functional, tissue-based; conditions: read-out: pA2 (converted)
T1 sequence (P34978 whole entry): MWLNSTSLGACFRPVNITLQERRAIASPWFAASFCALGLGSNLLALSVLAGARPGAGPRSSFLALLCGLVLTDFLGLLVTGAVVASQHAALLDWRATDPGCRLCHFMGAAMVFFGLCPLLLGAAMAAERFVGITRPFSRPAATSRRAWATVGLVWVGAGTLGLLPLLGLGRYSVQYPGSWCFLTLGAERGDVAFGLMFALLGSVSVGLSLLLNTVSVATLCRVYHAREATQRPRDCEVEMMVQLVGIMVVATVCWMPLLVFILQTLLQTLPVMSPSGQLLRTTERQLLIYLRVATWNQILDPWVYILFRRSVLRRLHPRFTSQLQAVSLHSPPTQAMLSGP

Thromboxane-A synthase = target: T2, Thromboxane-A synthase (Homo sapiens, UniProt P24557); assay: Inhibitory activity against Thromboxane A2 synthase from human platelet microsomes.
T2 sequence (P24557 whole entry): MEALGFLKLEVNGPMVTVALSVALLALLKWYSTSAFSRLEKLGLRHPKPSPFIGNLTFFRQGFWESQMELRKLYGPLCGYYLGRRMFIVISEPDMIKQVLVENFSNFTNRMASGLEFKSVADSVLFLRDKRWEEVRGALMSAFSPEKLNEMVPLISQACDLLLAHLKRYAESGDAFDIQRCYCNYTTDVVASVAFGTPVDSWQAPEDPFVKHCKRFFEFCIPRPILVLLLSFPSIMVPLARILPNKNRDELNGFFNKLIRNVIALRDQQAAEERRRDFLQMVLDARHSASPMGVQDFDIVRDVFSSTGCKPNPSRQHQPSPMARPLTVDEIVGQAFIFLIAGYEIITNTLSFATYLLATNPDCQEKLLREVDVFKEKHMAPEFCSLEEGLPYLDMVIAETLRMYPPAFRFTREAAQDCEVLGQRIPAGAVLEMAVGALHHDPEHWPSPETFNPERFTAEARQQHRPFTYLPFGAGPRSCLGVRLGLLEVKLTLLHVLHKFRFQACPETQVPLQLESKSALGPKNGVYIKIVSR

[1] = test system: Thromboxane A2 receptor (Canis lupus familiaris); assay: Tested for the peroral dose required to maintain complete thromboxane receptor antagonism for > 12 hours.
[2] = test system: Thromboxane A2 receptor (Canis lupus familiaris); assay: Tested for peroral dose required to cause complete blockade of the response to the thromboxane receptor agonist U-46,619 (1 uM) for 48 hours

Kb (Thromboxane A2 receptor) [pM]	Compound	also measured
79.4	O=C(O)CCc1cc(CCNS(=O)(=O)c2ccc(Cl)cc2)cc(Cc2cccc(F)c2)c1	–
25.1	COc1ccc(C(=O)c2cc(CCNS(=O)(=O)c3ccc(Cl)cc3)cc(CCC(=O)O)c2)cc1	–
100	O=C(O)CCc1cc(CCNS(=O)(=O)c2ccc(Cl)cc2)cc(C(=O)c2ccc(F)cc2)c1	–
398	O=C(O)CCc1cc(CCNS(=O)(=O)c2ccc(Cl)cc2)cc(Cc2cccnc2)c1	–
39.8	N#Cc1ccc(C(=O)c2cc(CCNS(=O)(=O)c3ccc(Cl)cc3)cc(CCC(=O)O)c2)cc1	–
2000	O=C(O)CCc1cccc(CCNS(=O)(=O)c2ccc(Cl)cc2)c1	–
200	O=C(O)CCc1cc(CCNS(=O)(=O)c2ccc(Cl)cc2)cc(C(O)c2ccc(F)cc2)c1 (stereo not drawn)	–
63.1	COc1ccccc1Cc1cc(CCNS(=O)(=O)c2ccc(Cl)cc2)cc(CCC(=O)O)c1	–
2.51	O=C(O)CCc1cc(CCNS(=O)(=O)c2ccc(Cl)cc2)cc(Cc2ccncc2)c1	IC50 (Thromboxane-A synthase): 47000 pM
15.8	O=C(O)CCc1cc(CCNS(=O)(=O)c2ccc(Cl)cc2)cc(Cc2ccccc2)c1	–
25.1	O=C(O)CCc1cc(CCNS(=O)(=O)c2ccc(Cl)cc2)cc(Cc2ccc(F)cc2)c1	Activity [1]: 0.1 mg/kg; Activity [2]: 1 mg/kg
3.98	CC(c1ccc(F)cc1)c1cc(CCNS(=O)(=O)c2ccc(Cl)cc2)cc(CCC(=O)O)c1 (stereo not drawn)	–
63.1	CS(=O)(=O)c1ccc(Cc2cc(CCNS(=O)(=O)c3ccc(Cl)cc3)cc(CCC(=O)O)c2)cc1	–
3.98	COc1ccc(Cc2cc(CCNS(=O)(=O)c3ccc(Cl)cc3)cc(CCC(=O)O)c2)cc1	–
316	CS(=O)(=O)c1ccc(C(=O)c2cc(CCNS(=O)(=O)c3ccc(Cl)cc3)cc(CCC(=O)O)c2)cc1	–
